The values that follow come from patent US11214803B2, “Modulators of YAP1 expression” (Ionis Pharmaceuticals, Inc., priority 2019, dated 2022).

The data set has as its system Yap1 mRNA. In words: Antisense inhibition of human Yap1 in A-431 cells by cEt gapmers, single dose (Example 4, RTS4814). Format: cell-based. The gist of the method:
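Values are % UTC: Yap1 mRNA by quantitative RT-PCR, normalized to RIBOGREEN total RNA. Cells were exposed ~48 h to 2,000 nM oligonucleotide without transfection. Oligonucleotides were 16-nucleoside gapmers with three cEt nucleosides per wing, ten-deoxy gap, P=S linkages throughout.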

[1] abbreviates: Table 17, A-431 cells, 5,000 cells per well, free uptake, 2,000 nM, approximately 48 hours, RTS4814, normalized to RIBOGREEN, Yap1 mRNA relative to untreated control cells.
The mark [2] stands for this setting: Table 16, A-431 cells, 5,000 cells per well, free uptake, 2,000 nM, approximately 48 hours, RTS4814, normalized to RIBOGREEN, Yap1 mRNA relative to untreated control cells.
Setting [3] is: Table 15, A-431 cells, 5,000 cells per well, free uptake, 2,000 nM, approximately 48 hours, RTS4814, normalized to RIBOGREEN, Yap1 mRNA relative to untreated control, * = targets amplicon region of primer probe set.
The mark [4] stands for this setting: Table 14, A-431 cells, 5,000 cells per well, free uptake, 2,000 nM, approximately 48 hours, RTS4814, normalized to RIBOGREEN, Yap1 mRNA relative to untreated control, * = targets amplicon region of primer probe set.
[5] abbreviates: Yap1 mRNA remaining as percent of untreated control, 3-10-3 cEt gapmers, A-431 cells, Table 37.
Where [6] appears, read: Yap1 mRNA remaining as percent of untreated control, 3-10-3 cEt gapmers, A-431 cells, Table 36.

Marks after values point to notes of the source that are not given here. Strand notation (5' to 3'): a small letter for the sugar, then the base; units joined by * are phosphorothioate-linked, units joined directly phosphodiester-linked; [ ] holds rarer units or linkages, { } end groups; capitals alone tell only the bases. k = constrained ethyl (cEt); [5mC] = 5-methylcytosine; d = 2'-deoxy (DNA)

Regarding “1075555 (kG*k[5mC]*k[5mC]*dA*dA*dA*dA*dA*dT*dT*d[5mC]*dT*dT*kG*k[5mC]*kA; antisense) [Compound 1075555]”, the “YAP1 (% UTC)” value under setting [1] was 92 % UTC.
As to “1074434 (antisense kA*k[5mC]*kT*dT*d[5mC]*dT*dA*dA*dG*dT*d[5mC]*dT*dG*kA*kG*kT) [Compound 1074434]”, the “YAP1 (% UTC)” value under setting [2] was 51* % UTC.
Regarding “1075169 (antisense kA*kA*kA*dA*d[5mC]*dG*dG*dA*dG*dT*dA*dA*dT*kG*k[5mC]*k[5mC]) [Compound 1075169]”, the “YAP1 (% UTC)” value under setting [3] turned out to be 39 % UTC.
On to “1074336 (antisense k[5mC]*k[5mC]*kA*dG*dT*dG*dT*dT*dG*dG*dT*dA*dA*k[5mC]*kT*kG) [Compound 1074336]”, for which the “YAP1 (% UTC)” value under setting [4] is 97 % UTC.
Regarding “1074147 (antisense kA*kG*kA*dA*dG*d[5mC]*dG*dG*d[5mC]*dG*dA*d[5mC]*dG*kG*k[5mC]*kT) [Compound 1074147]”, under setting [1], the “YAP1 (% UTC)” value is 23 % UTC.
As to “1075424 (antisense kT*kT*kA*dT*dT*dA*dA*dT*d[5mC]*d[5mC]*dT*dG*dT*k[5mC]*k[5mC]*kA) [Compound 1075424]”, under setting [4], the “YAP1 (% UTC)” value is recorded as 18 % UTC.
Take “1076163 (kG*kA*kT*dA*dT*dA*dA*dG*dT*dT*dA*d[5mC]*d[5mC]*kA*kA*kT; antisense) [Compound 1076163]”: the “YAP1 (% UTC)” value under setting [1] is 16 % UTC.
For the substance “1076482 (antisense k[5mC]*kT*kT*dT*dA*dG*dA*d[5mC]*dT*dA*dA*dG*dT*kA*kA*kG) [Compound 1076482]”, the “YAP1 (% UTC)” value under setting [2] was 107 % UTC.
With “1075511 (k[5mC]*kA*kA*dT*dA*dT*dT*dA*dT*d[5mC]*dT*dG*dA*kG*k[5mC]*kT; antisense) [compound 1075511]”, the “YAP1 (% UTC)” value under setting [5] is recorded as 106 % UTC.
As to “1075297 (kG*kT*kT*dA*dA*dT*dT*dA*dT*dA*dA*dG*d[5mC]*kT*kG*kT; antisense) [Compound 1075297]”, the “YAP1 (% UTC)” value under setting [3] is 10 % UTC.
Take “1074691 (antisense k[5mC]*k[5mC]*k[5mC]*dT*d[5mC]*d[5mC]*d[5mC]*d[5mC]*d[5mC]*dT*dA*dA*dG*k[5mC]*kT*kA) [Compound 1074691]”: the “YAP1 (% UTC)” value under setting [1] came to 76 % UTC.
On to “1074499 (kT*kA*k[5mC]*dA*dA*dT*dA*dA*d[5mC]*d[5mC]*dA*dT*d[5mC]*k[5mC]*k[5mC]*kA; antisense) [Compound 1074499]”, for which the “YAP1 (% UTC)” value under setting [1] amounted to 10 % UTC.
“1075072 (antisense kT*k[5mC]*k[5mC]*dG*dG*dG*dT*dA*dA*dA*dT*dA*dT*k[5mC]*kT*k[5mC]) [Compound 1075072]”: the “YAP1 (% UTC)” value under setting [4] is 37 % UTC.
Consider “1074209 (antisense k[5mC]*k[5mC]*kG*dG*dA*dG*d[5mC]*d[5mC]*dT*d[5mC]*dA*dT*dG*kG*kG*k[5mC]) [Compound 1074209]”, for which, under setting [3], the “YAP1 (% UTC)” value was determined as 72 % UTC.
Regarding “1074848 (kG*kT*kT*dA*dT*dG*dA*dT*dA*dG*dG*d[5mC]*dA*k[5mC]*kA*k[5mC]; antisense) [Compound 1074848]”, the “YAP1 (% UTC)” value under setting [4] is listed as 11 % UTC.
As to “1075318 (antisense kA*kT*k[5mC]*d[5mC]*dT*dA*dA*dA*dG*d[5mC]*d[5mC]*dA*d[5mC]*kT*kG*k[5mC]) [compound 1075318]”, the “YAP1 (% UTC)” value under setting [6] turned out to be 72 % UTC.
Consider “1074497 (k[5mC]*kA*kA*dT*dA*dA*d[5mC]*d[5mC]*dA*dT*d[5mC]*d[5mC]*d[5mC]*kA*kA*kG; antisense) [Compound 1074497]”, for which the “YAP1 (% UTC)” value under setting [3] came out at 26 % UTC.
For the substance “1076162 (kA*kT*kT*dT*dA*d[5mC]*dT*dT*dG*dG*d[5mC]*dA*dA*k[5mC]*kT*k[5mC]; antisense) [Compound 1076162]”, under setting [2], the “YAP1 (% UTC)” value is 9 % UTC.
Consider “1075287 (antisense kT*kA*kT*dT*dA*d[5mC]*dG*dG*dA*d[5mC]*dA*dG*dA*kA*kG*kT) [compound 1075287]”, for which the “YAP1 (% UTC)” value under setting [5] turned out to be 58 % UTC.
In the case of “1076055 (kA*kA*kT*dT*dA*d[5mC]*dT*dA*dA*d[5mC]*dA*dA*dT*k[5mC]*kT*k[5mC]; antisense) [compound 1076055]”, under setting [5], the “YAP1 (% UTC)” value was found to be 45 % UTC.
On to “1075394 (kT*k[5mC]*kT*dT*dA*dA*d[5mC]*d[5mC]*dT*dA*dT*dG*d[5mC]*k[5mC]*kA*kA; antisense) [Compound 1075394]”, for which the “YAP1 (% UTC)” value under setting [2] is reported as 27 % UTC.
Consider “1074627 (antisense k[5mC]*k[5mC]*kT*dG*dT*dT*dA*dT*dG*dA*dA*d[5mC]*d[5mC]*k[5mC]*kT*kT) [Compound 1074627]”, for which, under setting [1], the “YAP1 (% UTC)” value is on record as 3 % UTC.
“1074785 (kA*k[5mC]*k[5mC]*dA*dT*dA*dA*dG*dT*dA*dG*dA*dT*k[5mC]*kT*kA; antisense) [Compound 1074785]”: under setting [3], the “YAP1 (% UTC)” value is on record as 10 % UTC.
Turning to “1075011 (antisense kG*k[5mC]*kA*d[5mC]*dA*dA*dT*dA*dA*dT*d[5mC]*dG*dA*kA*k[5mC]*kA) [Compound 1075011]”, the “YAP1 (% UTC)” value under setting [1] was 44 % UTC.
“1075031 (antisense kA*kT*kT*dT*dA*dA*dT*dA*dT*dT*d[5mC]*dG*dA*k[5mC]*kA*k[5mC]) [compound 1075031]”: the “YAP1 (% UTC)” value under setting [5] is 52 % UTC.
For the substance “1074786 (kA*kA*k[5mC]*d[5mC]*dA*dT*dA*dA*dG*dT*dA*dG*dA*kT*k[5mC]*kT; antisense) [Compound 1074786]”, the “YAP1 (% UTC)” value under setting [2] worked out at 28 % UTC.
Consider “1075959 (kG*kA*kT*dT*dA*dT*dT*dA*dT*dT*dG*d[5mC]*dA*kG*k[5mC]*kT; antisense) [compound 1075959]”, for which, under setting [5], the “YAP1 (% UTC)” value came out at 15 % UTC.
With “1076003 (kA*kA*kT*dT*dT*dA*dA*dT*dG*dG*d[5mC]*dT*dT*kG*k[5mC]*kA; antisense) [Compound 1076003]”, under setting [1], the “YAP1 (% UTC)” value came to 8 % UTC.
Take “1075543 (kA*kT*kA*dT*dA*dT*dT*dA*dG*dG*dA*dG*dT*kT*kT*k[5mC]; antisense) [compound 1075543]”: the “YAP1 (% UTC)” value under setting [5] was 22 % UTC.
For the substance “1074326 (antisense kA*k[5mC]*kG*d[5mC]*dA*dG*dG*dG*d[5mC]*dT*dA*dA*d[5mC]*kT*k[5mC]*k[5mC]) [compound 1074326]”, the “YAP1 (% UTC)” value under setting [6] is given as 36 % UTC.
As for “1075043 (antisense k[5mC]*k[5mC]*k[5mC]*d[5mC]*dA*dA*dA*dA*dG*d[5mC]*d[5mC]*d[5mC]*dT*kA*k[5mC]*kT) [Compound 1075043]”, the “YAP1 (% UTC)” value under setting [1] was 73 % UTC.
Take “1074753 (kT*kA*k[5mC]*dA*dT*dT*dA*dG*dG*dA*dA*d[5mC]*dA*kA*kG*kG; antisense) [Compound 1074753]”: under setting [3], the “YAP1 (% UTC)” value is reported as 4 % UTC.
For “1075094 (kG*kA*kT*dA*dA*dA*dT*dG*dT*dA*dA*d[5mC]*dT*kA*kG*k[5mC]; antisense) [compound 1075094]”, the “YAP1 (% UTC)” value under setting [6] was found to be 10 % UTC.
In the case of “1074885 (kA*kG*kG*dG*d[5mC]*dT*dA*dA*d[5mC]*dT*d[5mC]*d[5mC]*dT*kG*k[5mC]*k[5mC]; antisense) [compound 1074885]”, the “YAP1 (% UTC)” value (table after Table 37, headed TABLE 32 (gapmers targeting SEQ ID NO.: 3), A-431 cells, free uptake, 2,000 nM, approximately 48 hours, RTS4814) came to 115 % UTC.
“1075138 (antisense kA*kA*kT*dA*dA*dT*dA*dG*dA*dT*dA*d[5mC]*dT*kG*k[5mC]*k[5mC]) [Compound 1075138]”: the “YAP1 (% UTC)” value under setting [2] amounted to 4 % UTC.
With “1075776 (kA*kT*kG*dT*dG*dA*dT*dA*dT*dG*dG*dA*dT*kT*k[5mC]*kT; antisense) [Compound 1075776]”, under setting [4], the “YAP1 (% UTC)” value was determined as 10 % UTC.
In the case of “1076513 (antisense k[5mC]*kA*kT*dT*dA*dA*d[5mC]*dA*d[5mC]*dT*d[5mC]*d[5mC]*dT*k[5mC]*kA*kG) [Compound 1076513]”, the “YAP1 (% UTC)” value under setting [3] is reported as 36 % UTC.
For “1074944 (antisense kA*kA*kA*dA*d[5mC]*d[5mC]*d[5mC]*dT*dT*dT*dG*dG*dT*k[5mC]*kT*k[5mC]) [Compound 1074944]”, the “YAP1 (% UTC)” value under setting [4] came out at 89 % UTC.
In the case of “1074306 (antisense k[5mC]*k[5mC]*kT*d[5mC]*dA*d[5mC]*d[5mC]*dT*dG*d[5mC]*d[5mC]*dG*dA*kA*kG*k[5mC]) [Compound 1074306]”, the “YAP1 (% UTC)” value under setting [2] worked out at 107 % UTC.
“1075478 (k[5mC]*kA*kT*dT*dT*dT*dG*dA*dA*d[5mC]*d[5mC]*d[5mC]*dT*kT*kT*kA; antisense) [compound 1075478]”: the “YAP1 (% UTC)” value under setting [6] turned out to be 20 % UTC.
As for “1074563 (antisense kT*kG*kA*dA*dT*dT*d[5mC]*d[5mC]*dA*dA*dT*d[5mC]*dG*kA*kG*kA) [Compound 1074563]”, under setting [1], the “YAP1 (% UTC)” value was determined as 4 % UTC.
Take “1074743 (kG*kA*kA*dA*dG*dG*dA*d[5mC]*dT*d[5mC]*dT*dT*dA*kG*kG*kT; antisense) [compound 1074743]”: the “YAP1 (% UTC)” value under setting [5] worked out at 16 % UTC.
“1076310 (kA*k[5mC]*k[5mC]*d[5mC]*dT*dA*dT*dA*d[5mC]*dT*dT*dG*dA*kA*kT*kT; antisense) [compound 1076310]”: the “YAP1 (% UTC)” value under setting [6] amounted to 36 % UTC.
With “1074659 (antisense k[5mC]*kT*kA*dA*dA*dA*d[5mC]*dT*d[5mC]*d[5mC]*dA*dT*d[5mC]*kT*kG*k[5mC]) [Compound 1074659]”, the “YAP1 (% UTC)” value under setting [1] was 12 % UTC.
For “1076193 (kT*kT*kA*dA*dT*dA*d[5mC]*dA*d[5mC]*dA*dG*dG*dT*kT*k[5mC]*k[5mC]; antisense) [Compound 1076193]”, under setting [3], the “YAP1 (% UTC)” value amounted to 29 % UTC.
